Experimental data published in ChEMBL document CHEMBL4806963, “Antagonistic peptides for frizzled-1 and frizzled-2” (2013).
Calls of active or inactive are those of the source. The rule behind the calls is not given here. Where a SMILES comes first, the peptide text is derived from it.

Columns and labels:
[1] = target: Frizzled-2 (Homo sapiens) (UniProt Q14332); assay: Antagonist activity at Wnt3a-stimulated frizzled-2 (unknown origin) expressed in human HEK293superTOP flash cells incubated for 24 hrs by luciferase reporter gene assay; assay type: functional, cell-based; details: HEK293
Frizzled-2 (Homo sapiens), sequence (Q14332 24-565 limits assumed): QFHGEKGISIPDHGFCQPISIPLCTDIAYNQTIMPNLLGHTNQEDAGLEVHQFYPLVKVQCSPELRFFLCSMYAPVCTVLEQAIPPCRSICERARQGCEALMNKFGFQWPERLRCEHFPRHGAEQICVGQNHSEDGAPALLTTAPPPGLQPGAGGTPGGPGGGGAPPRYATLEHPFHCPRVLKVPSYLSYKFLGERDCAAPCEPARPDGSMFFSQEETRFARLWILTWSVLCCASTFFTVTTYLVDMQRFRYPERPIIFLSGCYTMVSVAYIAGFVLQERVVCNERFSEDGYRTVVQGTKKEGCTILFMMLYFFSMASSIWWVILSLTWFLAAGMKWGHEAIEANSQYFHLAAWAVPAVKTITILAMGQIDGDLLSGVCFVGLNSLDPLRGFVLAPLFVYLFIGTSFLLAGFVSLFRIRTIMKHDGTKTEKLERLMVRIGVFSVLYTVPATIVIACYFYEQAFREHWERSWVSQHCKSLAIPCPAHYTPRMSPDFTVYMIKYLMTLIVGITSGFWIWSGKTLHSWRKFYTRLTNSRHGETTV

[2] = target: Frizzled-1 (Homo sapiens) (UniProt Q9UP38); assay: Antagonist activity at Wnt3a-stimulated frizzled-1 (unknown origin) expressed in human HEK293superTOP flash cells incubated for 24 hrs by luciferase reporter gene assay; assay type: functional, cell-based; details: HEK293
Frizzled-1 (Homo sapiens), sequence (Q9UP38 70-647 limits assumed): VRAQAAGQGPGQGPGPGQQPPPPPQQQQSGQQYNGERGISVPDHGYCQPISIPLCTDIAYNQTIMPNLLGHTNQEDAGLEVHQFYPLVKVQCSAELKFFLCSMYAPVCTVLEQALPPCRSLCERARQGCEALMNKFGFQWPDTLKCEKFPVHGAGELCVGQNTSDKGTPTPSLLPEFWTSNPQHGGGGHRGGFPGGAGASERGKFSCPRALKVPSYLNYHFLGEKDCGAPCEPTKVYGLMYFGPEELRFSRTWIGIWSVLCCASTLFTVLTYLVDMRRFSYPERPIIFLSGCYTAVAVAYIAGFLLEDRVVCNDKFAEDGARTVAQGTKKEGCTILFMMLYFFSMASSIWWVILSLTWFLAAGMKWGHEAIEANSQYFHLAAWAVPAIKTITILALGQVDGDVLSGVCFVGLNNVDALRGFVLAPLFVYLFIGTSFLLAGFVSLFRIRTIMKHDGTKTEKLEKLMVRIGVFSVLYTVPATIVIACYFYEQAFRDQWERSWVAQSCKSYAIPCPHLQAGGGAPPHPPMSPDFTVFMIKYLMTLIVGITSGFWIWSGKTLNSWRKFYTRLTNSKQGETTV

[3] = target: Frizzled-2 (Homo sapiens) (UniProt Q14332); assay: Agonist activity at frizzled-2 (unknown origin) expressed in human HEK293superTOP flash cells by luciferase reporter gene assay; assay type: functional, cell-based; details: HEK293
[4] = target: Frizzled-1 (Homo sapiens) (UniProt Q9UP38); assay: Agonist activity at frizzled-1 (unknown origin) expressed in human HEK293superTOP flash cells by luciferase reporter gene assay; assay type: functional, cell-based; details: HEK293
[5] = target: Frizzled-1 (Rattus norvegicus) (UniProt Q08463); assay: Antagonist activity at Wnt3a-stimulated rat frizzled-1 expressed in CHO cells up to 10 uM incubated for 24 hrs by luciferase reporter gene assay; assay type: cell-based; details: dose microM <=10, time 24.0 hrs
Frizzled-1 (Rattus norvegicus), sequence (Q08463 whole entry): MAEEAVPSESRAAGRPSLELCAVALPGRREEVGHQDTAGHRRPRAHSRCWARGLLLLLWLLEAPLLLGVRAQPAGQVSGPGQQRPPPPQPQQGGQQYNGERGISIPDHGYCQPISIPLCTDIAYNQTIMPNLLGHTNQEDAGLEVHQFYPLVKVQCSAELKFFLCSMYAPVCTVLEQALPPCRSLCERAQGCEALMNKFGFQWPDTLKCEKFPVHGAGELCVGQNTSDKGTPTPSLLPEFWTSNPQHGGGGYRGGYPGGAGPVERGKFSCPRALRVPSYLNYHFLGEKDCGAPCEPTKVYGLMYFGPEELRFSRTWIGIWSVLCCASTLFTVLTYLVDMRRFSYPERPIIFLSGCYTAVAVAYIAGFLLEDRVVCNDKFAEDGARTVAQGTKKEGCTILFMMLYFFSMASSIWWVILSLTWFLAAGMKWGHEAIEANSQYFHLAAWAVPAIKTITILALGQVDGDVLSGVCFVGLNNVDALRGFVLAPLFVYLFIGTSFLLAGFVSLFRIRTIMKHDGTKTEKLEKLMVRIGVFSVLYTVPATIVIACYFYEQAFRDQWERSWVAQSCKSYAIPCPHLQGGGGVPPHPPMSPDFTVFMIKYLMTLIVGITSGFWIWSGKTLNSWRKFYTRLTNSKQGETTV

[6] = target: Frizzled-2 (Rattus norvegicus) (UniProt Q08464); assay: Antagonist activity at Wnt3a-stimulated rat frizzled-2 expressed in […] cells up to 10 uM incubated for 24 hrs by luciferase reporter gene assay; assay type: cell-based; details: dose microM <=10, time 24.0 hrs
Frizzled-2 (Rattus norvegicus), sequence (Q08464 29-570 limits assumed): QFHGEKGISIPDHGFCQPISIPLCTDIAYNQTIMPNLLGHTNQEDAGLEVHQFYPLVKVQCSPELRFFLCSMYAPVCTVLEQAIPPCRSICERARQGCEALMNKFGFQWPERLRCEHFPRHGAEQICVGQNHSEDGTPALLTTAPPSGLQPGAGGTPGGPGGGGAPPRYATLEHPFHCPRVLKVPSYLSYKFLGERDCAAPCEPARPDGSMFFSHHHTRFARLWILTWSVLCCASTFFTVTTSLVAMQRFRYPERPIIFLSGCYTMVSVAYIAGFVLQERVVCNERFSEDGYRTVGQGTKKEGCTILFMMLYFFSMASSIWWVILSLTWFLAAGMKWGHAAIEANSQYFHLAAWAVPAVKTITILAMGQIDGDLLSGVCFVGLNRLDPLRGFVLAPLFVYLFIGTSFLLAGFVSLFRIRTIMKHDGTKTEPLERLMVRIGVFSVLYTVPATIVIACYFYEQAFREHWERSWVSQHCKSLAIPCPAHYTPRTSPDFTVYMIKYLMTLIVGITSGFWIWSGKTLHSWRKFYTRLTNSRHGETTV

[7] = target: Frizzled-1 (Rattus norvegicus) (UniProt Q08463); assay: Antagonist activity at Wnt3a-stimulated rat frizzled-1 expressed in African green monkey COS7 cells up to 10 uM incubated for 24 hrs by luciferase reporter gene assay; assay type: cell-based; details: dose microM <=10, time 24.0 hrs
[8] = target: Frizzled-2 (Rattus norvegicus) (UniProt Q08464); assay: Antagonist activity at Wnt3a-stimulated rat frizzled-2 expressed in African green monkey COS7 cells up to 10 uM incubated for 24 hrs by luciferase reporter gene assay; assay type: cell-based; details: dose microM <=10, time 24.0 hrs
[9] = target: Frizzled-1 (Homo sapiens) (UniProt Q9UP38); assay: Antagonist activity at Wnt3a-stimulaed frizzled-1 (unknown origin) expressed in human HEK293superTOP flash cells at 1 nM incubated for 24 hrs by luciferase reporter gene assay (reference value: 0%); assay type: functional, cell-based; details: HEK293, filed as antagonist
[10] = target: Frizzled-2 (Homo sapiens) (UniProt Q14332); assay: Antagonist activity at Wnt3a-stimulaed frizzled-2 (unknown origin) expressed in human HEK293superTOP flash cells at 1 nM incubated for 24 hrs by luciferase reporter gene assay (reference value: 0%); assay type: functional, cell-based; details: HEK293, filed as antagonist
[11] = target: Frizzled-2 (Homo sapiens) (UniProt Q14332); assay: Antagonist activity at Wnt3a-stimulated frizzled-2 (unknown origin) expressed in human HEK293superTOP flash cells at 10 nM incubated for 24 hrs by luciferase reporter gene assay; assay type: functional, cell-based; details: HEK293
[12] = target: Frizzled-1 (Homo sapiens) (UniProt Q9UP38); assay: Antagonist activity at Wnt3a-stimulated frizzled-1 (unknown origin) expressed in human HEK293superTOP flash cells at 10 nM incubated for 24 hrs by luciferase reporter gene assay; assay type: functional, cell-based; details: HEK293

Row | Compound | inhibition [1] | inhibition [2] | Activity [3] | Activity [4] | inhibition [5] | inhibition [6] | inhibition [7] | inhibition [8] | inhibition [9] | inhibition [10] | inhibition [11] | inhibition [12]
1 | CC(=O)N[C@@H](CS)C(=O)N[C@@H](CCCCN)C(=O)N[C@@H](CS)C(=O)N[C@@H](Cc1cnc[nH]1)C(=O)NCC(=O)N[C@H](C(=O)N[C@@H](CO)C(=O)NCC(=O)N[C@@H](CO)C(=O)N[C@@H](CS)C(=O)N[C@H](C(=O)N[C@H](C(=O)N[C@@H](CCCCN)C(=O)N[C@H](C(=O)N[C@@H](CS)C(=O)N[C@@H](Cc1c[nH]c2ccccc12)C(N)=O)[C@@H](C)O)C(C)C)[C@@H](C)O)C(C)C (Ac-CKCHGVSGSCTVKTCW-NH2) | inactive | inactive | inactive | inactive |  |  |  |  |  |  |  | 
2 | CSCC[C@H](NC(=O)CNC(=O)[C@H](CO)NC(=O)[C@H](CCCCN)NC(=O)[C@H](CC(N)=O)NC(=O)[C@H](CS)NC(C)=O)C(=O)N[C@@H](CC(=O)O)C(=O)NCC(=O)N[C@@H](CS)C(=O)N[C@@H](CCC(=O)O)C(=O)N[C@@H](CC(C)C)C(N)=O (Ac-CNKSGMDGCEL-NH2) | inactive | inactive | inactive | inactive |  |  |  |  |  |  |  | 
3 | CSCC[C@H](NC(=O)[C@H](C)NC(=O)[C@H](CCC(=O)O)NC(=O)[C@H](CO)NC(=O)[C@@H](NC(=O)[C@H](CCCCN)NC(=O)[C@H](CC(N)=O)NC(=O)[C@H](CS)NC(C)=O)[C@@H](C)O)C(=O)N[C@@H](CC(=O)O)C(=O)NCC(=O)N[C@@H](CS)C(=O)N[C@@H](CCC(=O)O)C(=O)N[C@@H](CC(C)C)C(N)=O (Ac-CNKTSEAMDGCEL-NH2) |  |  |  |  | inactive | inactive | inactive | inactive | 52.6% | 63.1% | inactive | inactive
4 | CC(=O)N[C@@H](CS)C(=O)N[C@@H](CC(N)=O)C(=O)N[C@@H](CCCCN)C(=O)N[C@H](C(=O)N[C@@H](CO)C(=O)N[C@@H](CCC(=O)O)C(=O)NCC(=O)N[C@@H](C)C(=O)N[C@@H](CC(=O)O)C(=O)NCC(=O)N[C@@H](CS)C(=O)N[C@@H](CCC(=O)O)C(=O)N[C@@H](CC(C)C)C(N)=O)[C@@H](C)O (Ac-CNKTSEGADGCEL-NH2) |  |  |  |  | inactive | inactive | inactive | inactive | 67.6% | 85% | inactive | inactive
5 | CSCC[C@H](NC(=O)CNC(=O)[C@H](CCC(=O)O)NC(=O)[C@H](CO)NC(=O)[C@@H](NC(=O)[C@H](CCCCN)NC(=O)[C@H](CC(N)=O)NC(=O)[C@H](CS)NC(C)=O)[C@@H](C)O)C(=O)N[C@@H](C)C(=O)NCC(=O)N[C@@H](CS)C(=O)N[C@@H](CCC(=O)O)C(=O)N[C@@H](CC(C)C)C(N)=O (Ac-CNKTSEGMAGCEL-NH2) |  |  |  |  | inactive | inactive | inactive | inactive | 40.5% | 60.5% | inactive | inactive
6 | CSCC[C@H](NC(=O)CNC(=O)[C@H](CCC(=O)O)NC(=O)[C@H](CO)NC(=O)[C@@H](NC(=O)[C@H](CCCCN)NC(=O)[C@H](CC(N)=O)NC(=O)[C@H](CS)NC(C)=O)[C@@H](C)O)C(=O)N[C@@H](CC(=O)O)C(=O)N[C@@H](C)C(=O)N[C@@H](CS)C(=O)N[C@@H](CCC(=O)O)C(=O)N[C@@H](CC(C)C)C(N)=O (Ac-CNKTSEGMDACEL-NH2) |  |  |  |  | inactive | inactive | inactive | inactive | 69.9% | 83.3% | inactive | inactive
7 | CSCC[C@H](NC(=O)CNC(=O)[C@H](CCC(=O)O)NC(=O)[C@H](CO)NC(=O)[C@@H](NC(=O)[C@H](CCCCN)NC(=O)[C@H](CC(N)=O)NC(=O)[C@H](CS)NC(C)=O)[C@@H](C)O)C(=O)N[C@@H](CC(=O)O)C(=O)NCC(=O)N[C@@H](CS)C(=O)N[C@@H](C)C(=O)N[C@@H](C)C(N)=O (Ac-CNKTSEGMDGCAA-NH2) |  |  |  |  | inactive | inactive | inactive | inactive | 66.8% | 74.3% | inactive | inactive
8 | CSCC[C@H](NC(=O)CNC(=O)[C@H](CCC(=O)O)NC(=O)[C@H](CO)NC(=O)[C@@H](NC(=O)[C@H](CCCCN)NC(=O)[C@H](CC(N)=O)NC(=O)[C@H](CS)NC(C)=O)[C@@H](C)O)C(=O)N[C@@H](CC(=O)O)C(=O)NCC(=O)N[C@@H](CS)C(=O)N[C@@H](C)C(=O)N[C@@H](CC(C)C)C(N)=O (Ac-CNKTSEGMDGCAL-NH2) |  |  |  |  | inactive | inactive | inactive | inactive | 65.9% | 85.5% | inactive | inactive
9 | CSCC[C@H](NC(=O)CNC(=O)[C@H](CCC(=O)O)NC(=O)[C@H](CO)NC(=O)[C@@H](NC(=O)[C@H](CCCCN)NC(=O)[C@H](CC(N)=O)NC(=O)[C@H](CS)NC(C)=O)[C@@H](C)O)C(=O)N[C@@H](CC(=O)O)C(=O)NCC(=O)N[C@@H](CS)C(=O)N[C@@H](CCC(=O)O)C(=O)N[C@@H](C)C(N)=O (Ac-CNKTSEGMDGCEA-NH2) |  |  |  |  | inactive | inactive | inactive | inactive | 65.9% | 86.5% | inactive | inactive
10 | CC[C@H](C)[C@H](NC(C)=O)C(=O)N[C@@H](CCC(=O)O)C(=O)N[C@@H](CCC(=O)O)C(=O)N[C@@H](CS)C(=O)N[C@@H](CCC(N)=O)C(=O)N[C@@H](Cc1cnc[nH]1)C(=O)N[C@@H](CCC(N)=O)C(=O)N[C@@H](Cc1ccccc1)C(=O)N[C@@H](CCCNC(=N)N)C(=O)N[C@@H](CC(=O)O)C(=O)N[C@@H](CCCNC(=N)N)C(=O)N[C@@H](CCCNC(=N)N)C(=O)N[C@@H](Cc1c[nH]c2ccccc12)C(=O)N[C@@H](CC(N)=O)C(=O)N[C@@H](CS)C(N)=O (Ac-IEECQHQFRDRRWNC-NH2) | inactive | inactive | inactive | inactive |  |  |  |  |  |  |  | 
11 | CC[C@H](C)[C@H](NC(=O)CNC(=O)[C@H](Cc1cnc[nH]1)NC(=O)[C@H](CO)NC(=O)[C@H](CO)NC(=O)[C@@H](NC(=O)[C@H](CC(N)=O)NC(=O)[C@@H](N)CS)C(C)C)C(=O)N[C@@H](CC(=O)O)C(=O)NCC(=O)N[C@@H](CS)C(=O)N[C@@H](CC(=O)O)C(=O)N[C@@H](CC(C)C)C(=O)O (H-CNVSSHGIDGCDL-OH) |  |  |  |  | inactive | inactive | inactive | inactive | 45.3% | 62.4% | inactive | inactive
12 | Ac-ANKTSEGMDGCEL-NH2 |  |  |  |  | inactive | inactive | inactive | inactive | 70.8% | 82.6% | inactive | inactive
13 | Ac-CNKTSEGMDGAEL-NH2 |  |  |  |  | inactive | inactive | inactive | inactive | 67.2% | 84.9% | inactive | inactive
